B1: NGF: mature nerve growth factor (Harlan) (protein, UniProt P01139 122-241, looked up)
Beta-nerve growth factor: SSTHPVFHMGEFSVCDSVSVWVGDKTTATDIKGKEVTVLAEVNINNSVFRQYFFETKCRASNPVESGCRGIDSKHWNSYCTTTHTFVKALTTDEKQAAWRFIRIDTACVCVLSRKATRRG

What was measured:
[1] = test system: E15 DIV3 mouse hippocampal neurons; assay: Pretreatment with antibodies or inhibitors before proNGF addition, growth cone / filopodial collapse; assay type: cell-based; settings: for effect of pretreatment on proNGF-induced growth cone / filopodial collapse: pretreatment before proNGF for 20 min, 20 μg/ml antibody or control IgG 20 min, 100 nM Gö6976
Experimental: (§1) To assay which pathways are involved in filopodial collapse, 5-10 ng/ml proNGF, 10 ng/ml proBDNF, 25-50 ng/ml BDNF (Peprotech) or 25-100 ng/ml NGF (Harlan) was added to E15 primary hippocampal neurons for 20 min before fixation. In some cases, cells were pretreated with 100 nM K-252a (Calbiochem) for 20 min, 100 nM Gö6976 (Calbiochem) for 1 hour, 5 μM EHT1864 (Sigma) for 30 min or 100 nM ITX3 (ChemBridge Corporation, cat. no. 6007262) for 45 min. To block SorCS2, cells were incubated with 20 μg/ml anti-SorCS2 or control IgG for 20 min on ice before proNGF addition at 37° C.
(§2) DIV3 hippocampal neurons were fixed in 4% paraformaldehyde/20% sucrose for 10 min. The fixative was quenched with 50 mM NH4Cl in PBS for 5 min and cells were permeabilized with 0.1% TritonX-100 in PBS for 2 min. Alternatively, cells were fixed with ice-cold methanol for 5 min. Coverslips were blocked with 10% normal donkey serum, 2% bovine serum albumin and 0.25% fish skin gelatin in Tris-buffered saline for 30 min, incubated with primary antibodies diluted in blocking solution for 30 min, washed three times with Tris-buffered saline/0.25% fish skin gelatin, incubated with secondary antibodies mixed with Hoechst in blocking buffer for additional 30 min, washed and mounted using Mowio1488. Cells were imaged using a LSM510 laser-scanning confocal microscope equipped with a 40× Plan Neofluor NA1.3 DIC oil-immersion objective (Carl Zeiss Microimaging). Images were processed using LSM510 software (Zeiss) and ImageJ (NIH).
(§3) Primary hippocampal and cortical neurons were isolated from E15 C57BL/6 mouse embryos as previously described (PEREIRA, D. B. et al., Journal of Neuroscience 27:4859-4869 (2007)). Briefly, neurons were dissociated by incubation with 0.05% trypsin at 37° C. for 8 min followed by trituration with fire-polished glass Pasteur pipettes. Cells were plated on poly-D-lysine coated dishes and grown in Neurobasal medium containing B27, 0.5 mM glutamine (all Invitrogen) and 10 μM 5-fluorodeoxyuridine. Hippocampal neurons were transfected at DIV2 using Lipofectamine2000 (Invitrogen). For coverslips in a 24-well plate, 0.5 μg plasmid were mixed with 0.5 μl Lipofectamine2000, and for glass bottom dishes, 1.5 μg plasmid were mixed with 1.5 μl Lipofectamine2000. The complexes were added to the cells for 30-45 min, and then neurons were placed back into preconditioned media until analysis the following day. HT1080 cells were grown in DMEM/10% fetal bovine serum (both Invitrogen) and transfected using the AMAXA nucleofector (Lonza) according to manufacturer's instructions. 293FT cells were grown in DMEM/10% fetal bovine serum and transfected with Lipofectamine2000 according to manufacturer's instructions.

[2] = test system: E15 DIV3 mouse hippocampal neurons; assay: proNT-induced growth cone collapse in cultured hippocampal neurons (live imaging and immunofluorescence); assay type: cell-based; settings: for growth cone collapse caused by the inhibitor alone: DIV3 hippocampal neurons, 5 μM EHT1864 30 min, 100 nM ITX3 45 min
Experimental: as §1, §2
Cells were plated on gridded glass bottom dishes (MatTek Corporation) and imaged at DIV3 in phenol red-free Neurobasal medium (Invitrogen) supplemented with 30 mM HEPES-NaOH, pH7.4 using an Olympus IX71 inverted microscope driven by IPLab software (BD Biosciences) and equipped with a 60× PlanApoN objective (NA 1.42), a Hamamatsu EM-CCD camera and a heated stage maintained at 37° C., or driven by softWoRX software (version 3.7.1, DeltaVision), and equipped with a CoolSnap HQ2 camera (Photometrics) and an environmental chamber maintained at 37° C. Images were taken every 15 seconds. After live imaging cells were fixed, counterstained for p75, located by grid number and examined for p75 expression. All movies were exported and processed using IPLab (BD Biosciences), softWoRX (version 3.7.1, DeltaVision) and ImageJ (NIH) software. Filopodia length and speed were both analyzed using ImageJ (NIH) software. For this, two times ten consecutive frames, spaced 5-10 min apart, were analyzed before and again after treatment. In the length analysis, a line was drawn along an individual filopodium and measured at every time point, and the measurements were averaged before and after treatment. For the speed analysis, the filopodial tip was tracked using the ImageJ Manual Tracking plugin. Up to four individual filopodia were analyzed per movie, and a minimum of four movies taken from separate experiments were analyzed per condition.
as §3, with “HT1080 cells were grown in DMEM/10% fetal bovine serum (both Invitrogen) and transfected using the AMAXA nucleofector (Lonza) according to manufacturer's instructions. 293FT cells were grown in DMEM/10% fetal bovine serum and transfected with Lipofectamine2000 according to manufacturer's instructions.” left out

Rac = Rac activity assay (GST-Pak-CRIB pull-down of activated Rac); assay type: cell-based, mouse; settings: primary neuronal cultures
Experimental: Rac activity assays were performed as described previously (NEUBRAND, V. E. et al., Journal of Cell Science 123:2111-2123 (2010)). […] Cells were lysed in lysis buffer supplemented with 10 mM MgCl, lysates were cleared by centrifugation at 9000 g for 1 min, and cleared lysates were incubated with GST or GST-Pak-CRIB beads for 30 min at 4° C. Beads were washed and isolated active Rac was analyzed by Western blot. As a control, extra lysates were incubated with 0.1 mM GDP or 0.1 mM GTPγS for 30 min at room temperature before incubation with GST-Pak-CRIB beads. Western blots were analyzed by densitometry using ImageJ software, and isolated active Rac was normalized to the input.
GST and GST-Pak-CRIB proteins were expressed in E. coli BL21DE3 cells at 25° C. for 3 hours. Bacteria were disrupted by incubation with PBS supplemented with lysozyme on ice for 30 min and subsequent addition of 1 mM MgCl2, 0.1% TritonX-100 and 0.1 mg/ml DNAse for an additional 30 min. Bacterial lysates were cleared by centrifugation for 5 min at 3000 g and cleared lysates were incubated with glutathione sepharose. Beads were washed and the purity of the recombinant proteins was analyzed by Coomassie blue staining. 20 μg of sepharose coupled purified protein was used per reaction.

| Molecule | effect of pretreatment on proNGF-induced growth cone / filopodial collapse [1] | growth cone collapse caused by the inhibitor alone [2] | other results |
| --- | --- | --- | --- |
| C[C@@H](N)[C@H]1CC[C@H](C(=O)Nc2ccncc2)CC1 [Y-27632, reference compound] | nor did they interferen with proNGF-mediated growth cone collapse | neither induced growth cone collapse | – |
| C3 transferase [reference compound] | nor did they interferen with proNGF-mediated growth cone collapse | neither induced growth cone collapse | – |
| Cc1cc(/C=c2/sc3nc4ccccc4n3c2=O)c(C)n1-c1ccccc1 [ITX3, reference compound] | – | led to the collapse of growth cone structures | Rac activity after inhibitor treatment (Rac): striking decrease in Rac activity |
| O=c1cc(CN2CCOCC2)occ1OCCCCCSc1ccnc2cc(C(F)(F)F)ccc12 [EHT 1864, reference compound] | – | led to the collapse of growth cone structures | Rac activity after inhibitor treatment (Rac): striking decrease in Rac activity |
| Cn1c2ccccc2c2c3c(c4c5ccccc5n(CCC#N)c4c21)CNC3=O [Gö6976] | exposure to proNGF failed to induce collapse of actin-rich structures | – | effect of the agent alone on neuronal / actin morphology ([1]; agent alone, without proNGF): had no effect on actin morphology |
| 20-28: small peptide inhibitor 20-28 (of PKC) (FARKGALRQ; UniProt P17252 20-28, looked up, fragment) | exposure to proNGF failed to induce collapse of actin-rich structures | – | – |
| B1 | – | – | growth cone collapse ([2]; p75NTR-positive cells, 20 min exposure, 10 ng/ml proNGF, 10 ng/ml proBDNF with K252a, 5 ng/ml NGF): nor did NGF lead to actin rearrangements |

From patent US20130336988A1, “METHODS FOR TREATING EARLY STAGE OR MILD NEUROLOGICAL DISORDERS” (NEW YORK UNIVERSITY, priority 2010, published 2013)
